Assay results reported in US9255077B2, “Fluorine atom-containing mercapto compound” (FUJIFILM CORPORATION, priority 2012, dated 2016).

Assay: Solubility check: surface profile of coated fluoropolymer film observed by optical microscope
Assay type: physicochemical
Details: for Solubility: 0.3 wt % with respect to Cytop CTL-809M in perfluorotributylamine/1,1,1,3,3,3-hexafluoropropan-2-ol/Cytop CTL-809M=90/5/5 (parts by weight), applied onto glass substrate, 2 μm film, dried; for Solubility / compatibility with resin: same test as Table 1, coated Cytop CTL-809M film
Description: To a mixed solution of perfluorotributylamine/1,1,1,3,3,3-hexafluoropropan-2-ol/Cytop CTL-809M (manufactured by Asahi Glass Co., Ltd.)=90/5/5 (parts by weight), was added the compound represented by formula (1) according to the invention (any of Compounds 1-1 to 1-8) or any of Comparative Compounds C-1 to C-3 as shown below in an amount of 0.3 wt % with respect to the Cytop CTL-809M. Thereafter, the mixed solution was applied onto a glass substrate to a film thickness of 2 μm and dried.

O=C(CCSc1nnc(S)s1)OCCC(F)(F)C(F)(F)C(F)(F)C(F)(F)C(F)(C(F)(F)F)C(F)(F)F [Compound 1-1]
Solubility: Compatible

CC(CSc1nnc(S)s1)C(=O)OCCC(F)(F)C(F)(F)C(F)(F)C(F)(F)C(F)(C(F)(F)F)C(F)(F)F (centres unmarked) [Compound 1-2]
Solubility: Compatible

O=C(CCSc1nnc(S)s1)OCCC(F)(F)C(F)(F)C(F)(C(F)(F)F)C(F)(F)F [Compound 1-3]
Solubility: Compatible

O=C(CCSc1nnc(S)s1)OCCC(F)(F)C(F)(F)C(F)(F)C(F)(F)C(F)(F)C(F)(F)C(F)(C(F)(F)F)C(F)(F)F [Compound 1-4]
Solubility: Compatible

O=C(CSc1nnc(S)s1)OCCC(F)(F)C(F)(F)C(F)(F)C(F)(F)C(F)(C(F)(F)F)C(F)(F)F [Compound 1-5]
Solubility: Compatible

O=C(CCSc1nnc(S)s1)OCC(F)(F)C(F)(F)C(F)(F)C(F)(F)C(F)(C(F)(F)F)C(F)(F)F [Compound 1-6]
Solubility: Compatible

O=C(CCSc1nnc(S)s1)OCCCC(F)(F)C(F)(F)C(F)(F)C(F)(F)C(F)(C(F)(F)F)C(F)(F)F [Compound 1-7]
Solubility: Compatible

O=C(CCSc1nnc(S)s1)OCC(F)(F)C(F)(C(F)(F)C(F)(F)F)C(F)(F)C(F)(F)C(F)(F)C(F)(F)F (centres unmarked) [Compound 1-8]
Solubility: Compatible

CC(C)CCCCCCOC(=O)CCSc1nnc(S)s1 [Compound C-1, reference compound]
Solubility: Remain partially
Solubility / compatibility with resin: remained partially undissolved

O=C(CSc1nnc(S)s1)OCCC(F)(F)C(F)(F)C(F)(F)C(F)(F)F [Compound C-2, reference compound]
Solubility: Bleed out (compounds which bleed out are denoted by “Bleed out,”)
Solubility / compatibility with resin: bled out on the resin surface

O=C(CSc1nnc(S)s1)OCCC(F)(F)C(F)(F)C(F)(F)C(F)(F)C(F)(F)C(F)(F)C(F)(F)F [Compound C-3, reference compound]
Solubility: Bleed out slightly
Solubility / compatibility with resin: bled out on the resin surface
